Consider 9 compounds from US10405750B2, “Nonradiative voltage-sensitive dye for imaging neuronal action potential” (Washington University, priority 2014, dated 2019).

For data set [1] the following is noted: commercially available dyes to be tested; cited from earlier work.

`Nc1ccncc1` [4-AP, 4-am inopyridine]: in the data set with mouse brains (mouse, in vivo), the “PA waveforms (DPA-stained cortex) after 4-AP” value is “large-amplitude high-frequency waveforms consistent with epileptiform discharges” and the “behavioural effect in mice” value is given as “signs of convulsions”.

As for `CCN(CC)c1ccc2cc(/C=C/c3cc[n+](CC[N+](C)(C)C)cc3)ccc2c1.[Br-].[Br-]` [Di-2-ANEPEQ], the “Abs.: peak absorption wavelength” value in data set [1] is recorded as 517 nm.

For the compound `CCCCCCCCCCCCN(CCCCCCCCCCCC)c1ccc2cc(/C=C/c3cc[n+](CCC[N+](C)(C)C)cc3)ccc2c1.[Br-].[Br-]` [Di-12-ANEPPQ], the “Abs.: peak absorption wavelength” value in data set [1] was 519 nm.

For `CCCCN1C(=O)/C(=C/C=C/C=C2/C=CN(CCCCS(=O)(=O)[O-])c3ccccc32)SC1=S.[Na+]` [NK 2761], in data set [1], the “Abs.: peak absorption wavelength” value is reported as 716 nm.

As to `CCCCN(CCCC)c1ccc(/C=C/C=C/c2cc[n+](CCCCS(=O)(=O)[O-])cc2)cc1` [RH 160], the “Abs.: peak absorption wavelength” value in data set [1] is on record as 530 nm.

As for `CCCCN(CCCC)c1ccc(/C=C/C=C/C=C/c2cc[n+](CCCCS(=O)(=O)[O-])cc2)cc1` [RH 237], the “Abs.: peak absorption wavelength” value in data set [1] is given as 528 nm.

For `CCN(CC)c1ccc(/C=C/C=C/c2cc[n+](CCC[N+](CC)(CC)CC)cc2)cc1.[Br-].[Br-]` [RH 414], in data set [1], the “Abs.: peak absorption wavelength” value is reported as 532 nm.

With `CCN(CC)c1ccc(/C=C/C=C/c2cc[n+](CC(O)C[N+](C)(C)CCO)cc2)cc1.[Br-].[Br-]` (stereo not shown) [RH 795], the “Abs.: peak absorption wavelength” value in data set [1] is given as 530 nm.

As to `FC(F)OC(Cl)C(F)(F)F` (stereo not shown) [isoflurane], the “PA signal (DPA-stained cortex) after prolonged isoflurane” value with mouse brains (5% isoflurane, prolonged exposure (30 minutes), after 4-AP) is on record as “suppression of photoacoustic signal change”.
